Measured values from ChEMBL document CHEMBL1909046, “DrugMatrix in vitro pharmacology data”.

Tests used:
[1] = molecular target: Protein kinase C alpha type (Homo sapiens, UniProt P17252); type: cell-based; details: sf9;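 note: inhibition of PKCalpha kinase activity measured in an enzyme assay with histone as the phosphorylation substrate; in other assays of this panel Not Active means under 50% inhibition at 10 µM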
[2] = molecular target: Epidermal growth factor receptor (Homo sapiens, UniProt P00533); experiment: DRUGMATRIX: Protein Tyrosine Kinase, EGF Receptor enzyme inhibition (substrate: Poly(Glu:Tyr)); type: cell-based, Insect cells; details: insect cells; Not Active = under 50% inhibition at 10 µM
Androgen receptor = molecular target: T1, Androgen receptor (Rattus norvegicus, UniProt P15207); note: in other assays of this panel Not Active means under 50% inhibition at 10 µM
T1 sequence (P15207 whole entry): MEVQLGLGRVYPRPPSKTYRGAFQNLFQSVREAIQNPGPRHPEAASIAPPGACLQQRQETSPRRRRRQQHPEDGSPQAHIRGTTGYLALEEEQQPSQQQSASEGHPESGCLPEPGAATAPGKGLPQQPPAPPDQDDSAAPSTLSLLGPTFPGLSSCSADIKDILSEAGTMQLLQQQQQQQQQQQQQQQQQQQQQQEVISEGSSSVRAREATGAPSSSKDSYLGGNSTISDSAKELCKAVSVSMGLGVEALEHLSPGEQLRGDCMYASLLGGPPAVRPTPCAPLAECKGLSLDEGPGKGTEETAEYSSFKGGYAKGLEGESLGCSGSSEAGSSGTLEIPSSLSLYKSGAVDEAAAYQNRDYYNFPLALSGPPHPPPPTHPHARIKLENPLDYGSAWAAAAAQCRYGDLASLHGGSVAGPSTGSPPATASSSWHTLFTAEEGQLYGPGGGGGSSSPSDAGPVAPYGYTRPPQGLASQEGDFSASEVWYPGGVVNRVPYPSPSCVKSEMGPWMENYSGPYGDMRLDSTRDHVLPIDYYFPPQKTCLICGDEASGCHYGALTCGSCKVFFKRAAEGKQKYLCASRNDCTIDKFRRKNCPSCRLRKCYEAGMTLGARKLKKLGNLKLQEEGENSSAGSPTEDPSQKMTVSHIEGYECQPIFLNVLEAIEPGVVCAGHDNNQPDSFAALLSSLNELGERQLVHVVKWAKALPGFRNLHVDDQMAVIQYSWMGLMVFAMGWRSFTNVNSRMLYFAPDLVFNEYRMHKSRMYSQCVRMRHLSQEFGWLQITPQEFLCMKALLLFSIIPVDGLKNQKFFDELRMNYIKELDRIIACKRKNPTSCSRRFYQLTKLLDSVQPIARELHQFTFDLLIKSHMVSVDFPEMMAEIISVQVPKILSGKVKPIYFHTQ

[3] = molecular target: T2, Vasoactive intestinal polypeptide receptor 1 (Homo sapiens, UniProt P32241); type: cell membranes, Membrane; details: ht-29; note: in other assays of this panel Not Active means under 50% inhibition at 10 µM
T2 sequence (P32241 whole entry): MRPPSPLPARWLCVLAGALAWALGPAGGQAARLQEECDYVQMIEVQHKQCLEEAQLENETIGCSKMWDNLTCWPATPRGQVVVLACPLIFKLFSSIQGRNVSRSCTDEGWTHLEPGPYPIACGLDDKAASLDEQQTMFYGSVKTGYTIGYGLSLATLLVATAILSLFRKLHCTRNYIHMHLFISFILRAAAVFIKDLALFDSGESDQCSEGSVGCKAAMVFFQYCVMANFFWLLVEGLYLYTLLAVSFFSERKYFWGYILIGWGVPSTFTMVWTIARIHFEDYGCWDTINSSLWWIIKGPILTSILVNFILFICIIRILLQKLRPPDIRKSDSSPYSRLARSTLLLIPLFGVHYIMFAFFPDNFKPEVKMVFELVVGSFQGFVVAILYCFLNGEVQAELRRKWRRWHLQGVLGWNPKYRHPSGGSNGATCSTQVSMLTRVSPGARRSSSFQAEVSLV

Cannabinoid receptor 1 = Cannabinoid receptor 1 (Homo sapiens, UniProt P21554); type: cell membranes, Chem-1, Membrane; details: chem-1; note: in other assays of this panel Not Active means under 50% inhibition at 10 µM
[4] = molecular target: T3, Alpha-2A adrenergic receptor (Homo sapiens, UniProt P08913); type: cell membranes, Sf9, Membrane; note: in other assays of this panel Not Active means under 50% inhibition at 10 µM
T3 sequence (P08913 whole entry): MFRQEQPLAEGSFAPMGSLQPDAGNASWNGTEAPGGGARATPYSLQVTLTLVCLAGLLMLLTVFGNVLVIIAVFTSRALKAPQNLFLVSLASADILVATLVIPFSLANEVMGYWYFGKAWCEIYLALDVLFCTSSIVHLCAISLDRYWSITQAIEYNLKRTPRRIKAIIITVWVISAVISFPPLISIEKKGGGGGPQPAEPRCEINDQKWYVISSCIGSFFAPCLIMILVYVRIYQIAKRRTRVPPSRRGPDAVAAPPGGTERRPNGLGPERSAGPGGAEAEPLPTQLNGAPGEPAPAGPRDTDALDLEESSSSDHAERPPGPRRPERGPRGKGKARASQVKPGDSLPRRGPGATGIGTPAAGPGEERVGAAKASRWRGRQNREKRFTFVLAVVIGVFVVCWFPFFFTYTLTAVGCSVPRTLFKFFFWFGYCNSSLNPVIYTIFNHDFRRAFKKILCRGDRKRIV

Epidermal growth factor receptor, sequence (P00533 whole entry): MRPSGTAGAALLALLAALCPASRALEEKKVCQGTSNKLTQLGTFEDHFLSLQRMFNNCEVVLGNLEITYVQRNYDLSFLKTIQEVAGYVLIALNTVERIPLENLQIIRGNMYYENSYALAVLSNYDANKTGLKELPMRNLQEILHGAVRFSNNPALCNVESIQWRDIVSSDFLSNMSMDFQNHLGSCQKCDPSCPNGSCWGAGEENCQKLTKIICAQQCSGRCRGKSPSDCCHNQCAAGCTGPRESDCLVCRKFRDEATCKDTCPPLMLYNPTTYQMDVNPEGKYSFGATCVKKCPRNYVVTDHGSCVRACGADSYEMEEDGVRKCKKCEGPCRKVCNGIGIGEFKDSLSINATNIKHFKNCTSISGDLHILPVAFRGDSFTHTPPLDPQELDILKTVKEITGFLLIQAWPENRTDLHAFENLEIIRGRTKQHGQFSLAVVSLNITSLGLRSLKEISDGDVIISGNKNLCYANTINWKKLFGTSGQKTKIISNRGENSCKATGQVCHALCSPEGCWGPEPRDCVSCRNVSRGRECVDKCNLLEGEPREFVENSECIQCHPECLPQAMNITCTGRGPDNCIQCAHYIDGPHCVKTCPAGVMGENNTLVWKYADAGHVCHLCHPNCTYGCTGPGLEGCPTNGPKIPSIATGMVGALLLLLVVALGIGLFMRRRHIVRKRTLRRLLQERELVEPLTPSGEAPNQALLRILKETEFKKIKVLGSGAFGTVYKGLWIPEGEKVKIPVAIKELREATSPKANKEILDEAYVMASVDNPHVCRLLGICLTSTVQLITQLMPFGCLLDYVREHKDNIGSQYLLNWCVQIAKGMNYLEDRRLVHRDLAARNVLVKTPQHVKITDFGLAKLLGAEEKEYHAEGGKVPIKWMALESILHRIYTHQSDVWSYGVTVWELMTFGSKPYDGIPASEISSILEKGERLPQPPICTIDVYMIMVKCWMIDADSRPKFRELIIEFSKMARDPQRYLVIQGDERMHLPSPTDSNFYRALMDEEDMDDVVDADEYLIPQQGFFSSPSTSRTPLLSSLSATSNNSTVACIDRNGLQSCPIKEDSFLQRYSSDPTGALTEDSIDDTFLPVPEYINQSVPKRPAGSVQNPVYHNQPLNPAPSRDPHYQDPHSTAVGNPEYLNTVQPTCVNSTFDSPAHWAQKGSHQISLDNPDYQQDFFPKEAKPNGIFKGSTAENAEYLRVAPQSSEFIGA
Cannabinoid receptor 1, sequence (P21554 whole entry): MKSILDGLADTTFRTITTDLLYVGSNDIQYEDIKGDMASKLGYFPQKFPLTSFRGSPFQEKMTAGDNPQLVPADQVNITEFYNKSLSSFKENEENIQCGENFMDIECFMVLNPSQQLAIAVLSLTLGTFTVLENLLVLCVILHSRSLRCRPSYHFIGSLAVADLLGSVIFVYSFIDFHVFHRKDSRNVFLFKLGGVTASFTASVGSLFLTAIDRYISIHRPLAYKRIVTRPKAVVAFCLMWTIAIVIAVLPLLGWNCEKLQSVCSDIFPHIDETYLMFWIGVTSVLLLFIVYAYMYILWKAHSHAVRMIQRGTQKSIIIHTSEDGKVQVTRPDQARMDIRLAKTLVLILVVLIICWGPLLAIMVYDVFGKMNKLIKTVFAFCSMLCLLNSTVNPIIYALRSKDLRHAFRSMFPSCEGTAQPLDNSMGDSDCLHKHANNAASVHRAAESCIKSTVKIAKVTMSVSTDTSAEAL

Row | SMILES | IC50 [1] | IC50 [2] | IC50 (Androgen receptor) | IC50 [3] | IC50 (Cannabinoid receptor 1) | IC50 ([4]; sf9) | IC50 ([4]; read-out: IC50) [nM] | Ki ([4]; read-out: Ki) [nM]
1 | CCO [ALCOHOL] | Not Active | Not Active | Not Active | Not Active | Not Active | Not Active | – | –
2 | COc1cc(/C=C/C(=O)O)ccc1O [FERULATE] | Not Active | Not Active | Not Active | Not Active | Not Active | Not Active | – | –
3 | Nc1ccc(C(=O)O)c(O)c1 [AMINOSALICYLIC ACID] | Not Active | Not Active | Not Active | Not Active | Not Active | Not Active | – | –
4 | OC[C@H]1OC2C3[C@@H](CO)OC(O[C@H]4[C@H](O)[C@@H](O)[C@@H](O[C@H]5[C@H](O)[C@@H](O)[C@@H](O[C@H]6[C@H](O)[C@@H](O)[C@@H](O[C@H]7[C@H](O)[C@@H](O)[C@@H](O[C@H]8[C@H](O)[C@@H](O)[C@@H](O[C@H]9[C@H](O)[C@@H](O)C(OC1[C@H](O)[C@H]2O)O[C@@H]9CO)O[C@@H]8CO)O[C@@H]7CO)O[C@@H]6CO)O[C@@H]5CO)O[C@@H]4CO)[C@H](O)[C@H]3O | Not Active | Not Active | Not Active | Not Active | Not Active | Not Active | – | –
5 | CC(C)Cn1cnc2c(N)nc3ccccc3c21 [IMIQUIMOD] | Not Active | Not Active | Not Active | Not Active | Not Active | Not Active | – | –
6 | O=C(O)COC(=O)Cc1ccccc1Nc1c(Cl)cccc1Cl [ACECLOFENAC] | Not Active | Not Active | Not Active | Not Active | Not Active | Not Active | – | –
7 | COC(=O)C[C@](O)(CCC(C)(C)O)C(=O)O[C@@H]1C(OC)=C[C@]23CCCN2CCc2cc4c(cc2[C@H]13)OCO4 [HARRINGTONINE] | Not Active | Not Active | Not Active | Not Active | Not Active | Not Active | – | –
8 | C[C@]12CC[C@@H](O)C[C@@H]1CC[C@@H]1[C@@H]2CC[C@]2(C)C(=O)CC[C@@H]12 [ANDROSTERONE] | Not Active | Not Active | Not Active | Not Active | Not Active | Not Active | – | –
9 | CC[C@H]1OC(=O)[C@H](C)[C@@H](O[C@H]2C[C@@](C)(OC)[C@@H](O)[C@H](C)O2)[C@H](C)[C@@H](O[C@@H]2O[C@H](C)C[C@H](N(C)C)[C@H]2O)[C@](C)(O)C[C@@H](C)C(=O)[C@H](C)[C@@H](O)[C@]1(C)O [ERYTHROMYCIN] | Not Active | Not Active | – | Not Active | Not Active | Not Active | – | –
10 | Cl.NC[C@H]1CC[C@H](C(=O)Oc2ccc(CCC(=O)O)cc2)CC1 [CETRAXATE HYDROCHLORIDE] | Not Active | Not Active | – | Not Active | Not Active | Not Active | – | –
11 | O=C(O)CCc1nc(-c2ccccc2)c(-c2ccccc2)o1 [OXAPROZIN] | Not Active | Not Active | – | Not Active | Not Active | Not Active | – | –
12 | NS(=O)(=O)c1cc(C(=O)O)c(NCc2ccco2)cc1Cl [FUROSEMIDE] | Not Active | Not Active | – | Not Active | Not Active | Not Active | – | –
13 | O=C1CN(/N=C/c2ccc([N+](=O)[O-])o2)C(=O)N1 [NITROFURANTOIN] | Not Active | Not Active | – | Not Active | Not Active | Not Active | – | –
14 | c1ccc2sc(SSc3nc4ccccc4s3)nc2c1 [BENZOTHIAZYL DISULFIDE] | Not Active | Not Active | – | Not Active | Not Active | – | 899 | 337
15 | CC12CCC(CC1)C(C)(C)O2 [EUCALYPTOL] | Not Active | Not Active | – | Not Active | Not Active | Not Active | – | –
16 | CCN1C[C@]2(COC)[C@H](O)C[C@H](OC)[C@@]34[C@@H]5C[C@@]6(O)[C@H](OC(=O)c7ccccc7)[C@@H]5[C@@](OC(C)=O)([C@@H]([C@H](OC)[C@H]23)[C@@H]14)[C@@H](O)[C@@H]6OC [ACONITINE] | Not Active | Not Active | – | Not Active | Not Active | Not Active | – | –
17 | Nc1ccc(Cc2ccc(N)cc2)cc1 | Not Active | Not Active | – | Not Active | Not Active | Not Active | – | –
18 | Nc1nc(N)c2nc(CNc3ccc(C(=O)N[C@@H](CCC(=O)O)C(=O)O)cc3)cnc2n1 [AMINOPTERIN] | Not Active | Not Active | – | Not Active | Not Active | Not Active | – | –
19 | CCN(CCO)CCCC(C)Nc1ccnc2cc(Cl)ccc12 (centres undefined) [HYDROXYCHLOROQUINE] | Not Active | Not Active | – | Not Active | Not Active | Not Active | – | –
20 | ClC1=C(Cl)[C@]2(Cl)[C@@H]3[C@@H]4C[C@@H]([C@H]5O[C@@H]45)[C@@H]3[C@@]1(Cl)C2(Cl)Cl [DIELDRIN] | Not Active | Not Active | – | Not Active | Not Active | Not Active | – | –
21 | C[C@H]1C[C@H]2[C@@H]3CCC4=CC(=O)C=C[C@]4(C)[C@@]3(F)[C@@H](O)C[C@]2(C)[C@@]1(O)C(=O)CO [BETAMETHASONE] | Not Active | Not Active | – | Not Active | Not Active | Not Active | – | –
22 | OC[C@H]1O[C@@H]2O[C@H]3[C@H](O)[C@@H](O)[C@@H](O[C@H]4[C@H](O)[C@@H](O)[C@@H](O[C@H]5[C@H](O)[C@@H](O)[C@@H](O[C@H]6[C@H](O)[C@@H](O)[C@@H](O[C@H]7[C@H](O)[C@@H](O)[C@@H](O[C@H]8[C@H](O)[C@@H](O)[C@@H](O[C@H]1[C@H](O)[C@H]2O)O[C@@H]8CO)O[C@@H]7CO)O[C@@H]6CO)O[C@@H]5CO)O[C@@H]4CO)O[C@@H]3CO [BETADEX] | Not Active | Not Active | – | Not Active | Not Active | Not Active | – | –
23 | OC[C@H]1O[C@@H]2O[C@H]3[C@H](O)[C@@H](O)[C@@H](O[C@H]4[C@H](O)[C@@H](O)[C@@H](O[C@H]5[C@H](O)[C@@H](O)[C@@H](O[C@H]6[C@H](O)[C@@H](O)[C@@H](O[C@H]7[C@H](O)[C@@H](O)[C@@H](O[C@H]1[C@H](O)[C@H]2O)O[C@@H]7CO)O[C@@H]6CO)O[C@@H]5CO)O[C@@H]4CO)O[C@@H]3CO [ALFADEX] | Not Active | Not Active | – | Not Active | Not Active | Not Active | – | –
24 | CC(C)NCC(O)COc1ccc(CC(N)=O)cc1 (centres undefined) [ATENOLOL] | Not Active | Not Active | – | Not Active | Not Active | Not Active | – | –
